From patent EP4119138A1 (Universität Hamburg, priority 2021, dated 2023)

Assays:
[1] = Octanol-water partition coefficient (logD); assay type: physicochemical; conditions: PBS pH 7.4 / octanol, 25 °C; read-out: Log D (PBS pH 7.4/ octanol)
Method: Octanol and phosphate buffered saline (PBS, 137 mM NaCl, 2.7 mM KCl, 10 mM Na2HPO4, 2.0 mM KH2PO4, pH 7.4) were saturated with each other prior to the experiment. Stock solutions of all test compounds (100 mM) were prepared in DMSO, stored at - 20 °C and diluted with the saturated PBS to 100 µM prior to the experiment. The experiment was performed in duplicates in 2 mL HPLC-vials. 300 µL of the test compound solution (100 µM) was overlayered with 300 µL saturated octanol. The emulsions were vortexed for 1 min and shaken for 1 h at 180 rpm and 25 °C. After phase separation, the aqueous phases and the initial 100 µM compound solution were quantified on HPLC.

[2] = test system: human PBMCs (CD4/CD8 T cells); test: Lymphocyte inhibition, Cytostim-stimulated PBMCs, flow cytometry; assay type: cell-based; conditions: T-cell stimulation by Cytostim, read-out: IC50 for CD4 and CD8 replication
Method: Lymphocyte inhibition was determined by using human PBMCs (peripheral blood mononuclear cells) as cell culture. The inhibitor compound was added at 8 different concentrations with each determination in triplicate and one control without inhibitor. T-cell stimulation was done by Cytostim, a reagent that binds T-cell receptors to MHC molecules of the antigen-presenting cells in an antibody-based manner and enables T-cell stimulation. Quantification was achieved by a flow cytometry-based method (Facs analysis) with staining of PBMCs with eFluor670 (eBioscience(TM)). The PBMCs are assigned to their populations (CD4/CD8 T cells) by use of other markers.

hDHODH = hDHODH (Homo sapiens, UniProt Q02127); test: hDHODH enzyme assay (DCPIP absorption, initial velocities); assay type: biochemical; conditions: for IC50: hDHODH inhibition, HsDHODH29-396 35 nM, 25 °C
Sequence of hDHODH (Q02127 29-395 limits assumed): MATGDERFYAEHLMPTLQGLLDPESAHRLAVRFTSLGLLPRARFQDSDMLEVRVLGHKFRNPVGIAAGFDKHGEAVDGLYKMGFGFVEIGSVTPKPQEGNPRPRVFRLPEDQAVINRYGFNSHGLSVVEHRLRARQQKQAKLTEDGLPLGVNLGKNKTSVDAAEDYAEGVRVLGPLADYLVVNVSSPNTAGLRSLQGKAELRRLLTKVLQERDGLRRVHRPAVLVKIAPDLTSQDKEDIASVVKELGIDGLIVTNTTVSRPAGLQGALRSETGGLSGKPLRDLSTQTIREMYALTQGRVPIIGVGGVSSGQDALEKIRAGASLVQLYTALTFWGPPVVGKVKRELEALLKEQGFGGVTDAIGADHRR
Method: Expression and purification of the enzyme was carried out following the protocol of DAS et al. (SAR-Based Optimization of a 4-Quinoline Carboxylic Acid Analogue with Potent Antiviral Activity. ACS Med. Chem. Lett. 2013, 4, 517-521). The prepared enzyme stock solution (325 µM) was thawed to 0 °C and carefully diluted to 87.5 nM with ice-cooled Tris-HCl buffer (50 mM Tris-HCl, 0.1 % Triton X-100, pH 8.0)). Stock solutions of all test compounds (100 mM), L-DHO (250 mM) and CoQ1 (250 mM) were prepared in DMSO, stored at -20 °C and thawed to room temperature before use. The reaction was performed in triplicates in a 96 well plate with total volumes of 200 µL containing L-dihydroorotate (L-DHO; 0.10 mM), coenzyme Q1 (CoQ1; 25 µM), 2,6-dichlorophenolindophenol (DCPIP; 60 µM), HsDHODH29-396 (35 nM) and the test compound (varying concentrations) in Tris-HCl buffer.
The compound stock solutions were diluted in Tris-HCl buffer to give nine different concentrations and each sample was treated with a freshly prepared substrate mixture containing L-DHO, CoQ1 and DCPIP. By simultaneous addition of 80 µL ice-cooled enzyme solution ([…]) per well and immediate mixing by thorough pipetting, the reaction was started. The absorption of the mixture was monitored using a spectrophotometer (Berthold Technologies TriStar2S LB942 Multimode Reader, ICE software) with one data point per 10 seconds at an excitation wavelength of 600 nm and a temperature of 25 °C. During the first 200 s from enzyme addition, linear initial enzyme velocites were recorded, from which the IC50 values were calculated by non-linear fitting (Origin software) to the following equation: v = (V0)/(1 + (c)/(IC50)) [formula] wherein • v is the determined initial, linear enzyme velocity, • V0 is the calculated enzyme velocity without test compound and • c is the concentration of added test compound.

S9 metabolism assay = assay type: in vitro ADME, rat; conditions: for amide cleavage: hydrolysis study in S9 extract of rat liver, identified via LC-MS; for Metabolic stability [% remaining at 1h in rat S9 fraction]: test compound 100 µM, 37 °C
Method: Stock solutions of all test compounds (100 mM) were prepared in DMSO, stored at-20 °C and diluted in PB to 600 µM prior to the assay. Rat liver S9 fractions (SigmaAldrich, Lot # SLCC9026 and # SLCB2232) were combined, aliquoted (200 µL), stored at -80 °C and thawed to 0 °C before use. The reaction was performed in triplicates in eppendorf tubes with total volumes of 300 µL containing MgCl2 (5 mM), NADPH (5 mM), rat S9 fraction (1 mg) and the test compound (100 µM) in phosphate buffer (38.5 mM Na2HPO4, 11.5 mM KH2PO4, pH 7.3). 7-Ethoxycoumarin was assessed as reference inhibitor and a control without inhibitor but an equivalent amount of buffer instead was run. The ice cooled S9 fraction was added to a solution of MgCl2 and NADPH in PB and the resulting mixture was preincubated for 10 minutes at 37 °C in a shaker. Subsequently the reaction was started by addition of the test compound (50 µL), followed by threefold pipetting. After 0 h, 1 h and 3 h, samples of 50 µL were taken from the reaction, mixed with 150 µL ice-cooled methanol and centrifuged at 14000 rpm and 4 °C for 15 minutes. The supernatant was filtered with a syringe fiter, immediately quantified on HPLC and stored at -20 °C until LC/MS analysis.

EBOV Mayinga = test: microbe, parasite or virus in culture; assay type: cell-based, Ebola virus; conditions: Zaire ebolavirus, Vero, 96 h
[3] = Membrane permeability (PAMPA assay); assay type: in vitro ADME; conditions: PBS pH 7.4, 5 h, 25 °C
Method: Stock solutions of all test compounds (100 mM) were prepared in DMSO, stored at -20 °C and diluted with phosphate buffered saline (PBS, 137 mM NaCl, 2.7 mM KCl, 10 mM Na2HPO4, 2.0 mM KH2PO4, pH 7.4) to 200 µM prior to the experiment. The assay was performed in triplicates in a 96 well Corning Gentest Precoated PAMPA Plate System, which was stored at -20 °C and thawed to room temperature for 1 h prior to the assay. Wells of the donor plate were filled with 300 µL of the compound solutions (200 µM) and 200 µL PBS were added to the wells of the receiver plate. Two controls without inhibitor but an equivalent amount of buffer instead was run. Bubble-free assembling of the two plates was followed by 5 h incubation at 25 °C. Finally, the plates were carefully separated from each other. 150 µL of each well of both plates were transferred to black 96-well FluoroNunc™ plates and quantified on fluorescence spectrophotometer (Berthold Technologies TriStar^2S LB942 Multimode Reader, ICE software). Membrane Permeabilities were calculated using the following equation: Ppampa = (−ln(1−(cacc (t))/(ceq)))/(Aperm ⋅((1)/(Vdon)+(1)/(Vacc))⋅t) [formula] wherein • Cacc(t) is the compound concentration in acceptor well at time t, • Aperm is the area of the membrane filter (0.3 cm^2), • Vdon is the donor well volume (0.3 mL), • Vacc is the acceptor well volume (0.2 mL) and • Ceq is the equilibrium concentration with ceq = (cdon (t)⋅Vdon + cacc (t)⋅Vacc)/(Vdon + Vacc) [formula] where cdon(t) is the compound concentration in donor well at time t.

in vitro = conditions: African green monkey
LASV Ba366 = test: microbe, parasite or virus in culture; assay type: cell-based, Lassa virus; conditions: Mammarenavirus lassaense, Vero, 72 h
CCHFV Afg 09-2990 = test: microbe, parasite or virus in culture; assay type: cell-based, Crimean-Congo hemorrhagic fever orthonairovirus; conditions: Orthonairovirus haemorrhagiae, Vero, 72 h

SMILES | logD [1] | IC50 [2] [nM] | IC50 (hDHODH) [nM] | amide cleavage (S9 metabolism assay) | Metabolic stability [% remaining at 1h in rat S9 fraction] (S9 metabolism assay) [%] | IC50 (EBOV Mayinga) [nM] | Papp at 5 h, 200 µM [3] [×10⁻⁶ cm/s] | CC50 (in vitro) [nM] | IC50 (LASV Ba366) [nM] | IC50 (CCHFV Afg 09-2990) [nM] | percentual inhibition of hDHODH (hDHODH; at a 1 µM concentration) [%]
CCC(C)(C)c1cccc2cc(CNC(=O)Nc3ccccc3C(=O)O)oc12 [Example 1] | 2.98 | ~150 | 9.2 | no amide cleavage | 68.2 | 14 | 5.74 | > 1000 | 35 | 100 | –
O=C(NCc1cc2cccc(C(F)(F)F)c2o1)Nc1ccccc1C(=O)O [Example 2, 2-(3-((7-(trifluoromethyl)benzofuran-2-yl)methyl)ureido)benzoic acid] | 1.96 | – | 90.7 | no amide cleavage | 92.0 | – | 3.23 | – | 1000 | – | –
O=C(NCc1cc2cc(F)cc(C(F)(F)F)c2o1)Nc1ccccc1C(=O)O [Example 3] | – | – | ~230 | – | – | – | – | – | – | – | –
CCC(=O)Nc1ccc(C#Cc2ccc(N3CCOCC3)cc2)cc1C(=O)O [Example 4] | – | – | 50 | – | – | – | – | – | 600 | – | –
O=C(Nc1cnccc1C(=O)O)Nc1cccc2ccccc12 [Example 18] | 0.32 | – | 81 | did not show amide cleavage | 89.6 | – | 6.84 | – | – | – | 91
CCC(C)c1ccccc1OCCCC(=O)Nc1ccccc1C(=O)O (centres unmarked) [reference compound] | – | – | – | showed a cleavage of the amide bond | – | – | – | – | – | – | –
